Test results as given in US8877889B2, “Tumor cell-killing peptides” (Industry-Academic Cooperation Foundation, Chosun University, priority 2009, dated 2014).
Entries after “also recorded” stand apart in the source; their conditions may differ.

Key:
[1] = tested on: HeLa cells; test: Peptide-induced cell death, counting dead and survived cells under the light microscope; format: cell-based; conditions: peptides 10 μM, 20 μM, 30 μM, 10 minutes after treatment (FIG. 1B, 3A)
Experimental: (B) HeLa cells were treated with DMSO or the indicated peptides in increasing doses (10 μM, 20 μM, and 30 μM). % of cell death was determined at 10 minutes after treatment by counting the dead cells and survived cells under the light microscope.
(E) HeLa cells were transfected with substitution mutants of MTD peptide.
HeLa cells were treated with DMSO or with the indicated peptides at increasing doses (10 μM, 20 μM, or 30 μM). % cell death was determined 10 minutes after treatment by counting the dead cells and survived cells (300 cells per sample) under the light microscope.
(D) HeLa cells were treated with indicated amounts of MTD peptide for 1 hour, 2 hours, or 5 hours. % cell death was calculated by counting the dead cells and survived cells (200 to 500 cells per sample) under the light microscope. Data represent the means±SD of three independent experiments.

[2] = tested on: NCI-H460 cells; test: Peptide-induced cell death in NCI-H460 cells; format: cell-based; conditions: 5 μM, 2 or 5 hours (FIG. 3C)
Experimental: (C) NCI-H460 cells were treated with indicated peptides for 2 hours or 5 hours. % cell death was determined as described above.

[3] = tested on: A549 cells; test: Peptide-induced cell death in A549 cells; format: cell-based; conditions: 5 μM, 1, 2 or 5 hours (FIG. 3D)
Experimental: (D) A549 cells were treated with indicated peptides for 1, 2, or 5 hours. % cell death was determined as described above.

[4] = tested on: HeLa cells; test: Live cell images and annexin V / SYTOX Green staining of dying cells; format: cell-based
Experimental: (§1) (A) HeLa cells were treated with MTD peptides (10 μM), or TRAIL (100 ng/ml). Images were taken at the indicated times (upper panel). Jurkat cells were treated with MTD peptide (10 μM) for 10 minutes, cells were processed for TEM. Images were obtained with 4,000× magnification (lower panel). N: nucleus, M: mitochondrion.
(D) HeLa cells were treated with the MTD (5 μM) peptide with or without the pretreatment of 10 μM BAPTA-AM for 2 hours. Live cell images were serially acquired at 10-second intervals for 10 minutes and shown at the indicated times.
(A) HeLa cells were stained with FITC-conjugated Annexin V antibody at 10 minutes after DMSO or MTD treatment. Images were obtained under the confocal microscope.
(B) HeLa cells were stained with SYTOX Green 10 minutes after DMSO or MTD treatment. Images were obtained using confocal microscope.

[5] = tested on: Jurkat cells; test: Transmission electron microscopy of peptide-treated cells; format: cell-based; conditions: 10 μM for 10 minutes
Experimental: as §1
(§2) Jurkat cells or isolated mitochondria treated with MTD peptides were harvested by centrifugation and fixed with 2.5% glutaraldehyde for 2 hours followed by washing with 0.2 M sodium cacodylate buffer (pH 7.2) three times for 10-20 minutes. Fixation step was repeated overnight and washed with 0.2 M sodium cacodylate buffer three times. Samples were dehydrated with following sequential solutions 60% ethanol, 70% ethanol, 80% ethanol, 90% ethanol, 95% ethanol, and 100% ethanol twice for 20 minutes at 4° C., and then infiltrated by propylene oxide three times for 20 minutes. Samples were embedded with the mixture of propylene oxide and epon for 6 hours. Electron microscopic images were obtained using the Hitachi H-7600 electron microscope (80 kV, Hitachi, Tokyo, Japan). Mitochondria were isolated from mouse liver as previously described (1).

[6] = tested on: HeLa cells; test: HMGB1 release into the media, western blot; format: cell-based; conditions: 10 μM, 10 to 30 minutes, serum-free medium
Experimental: (C) HeLa cells were treated with DMSO or MTD peptides (10 μM) for 10 minutes or 30 minutes in the serum-free culture medium. After treatment, culture mediums were collected. Proteins in the conditioned media were precipitated by 2.5 vol. of methanol and 0.1 vol. of 5M NaCl. Precipitates and cell lysates were subjected to SDS-PAGE and western blot analysis with anti-HMGB1 antibody (R&D systems, Minneapolis, Minn.).

[7] = tested on: HeLa cells; test: Cytochrome c release by immunofluorescence; format: cell-based; conditions: HeLa cells; MTD peptide 5 μM
Experimental: (B) Plasmids (control vector or Noxa WT fused to GFP) were transfected into HeLa cells. After 2 days in the presence of zVAD-fmk, cytochrome c was stained with anti-cytochrome c antibody. Arrows indicate the diffused cytochrome c staining (upper panel). The release of cytochrome c was analyzed by immunofluorescence in HeLa cells after treatment with MTD peptides (5 μM) (lower panel).

[8] = tested on: Isolated mouse liver mitochondria; test: Isolated mitochondria treated with peptide, transmission electron microscopy; conditions: 10 μM peptide; 1 hour at 30° C.
Experimental: (D) Isolated mouse liver mitochondria were treated with buffer (NT), MTD peptide (10 μM), or MTDmt5 peptide (10 μM), and then incubated for 1 hour at 30° C. Mitochondria were harvested by centrifugation (10,000×rpm) and then processed for transmission electron microscopy. Images (upper panel) were obtained with 7,000× magnification, and the relative mitochondrial sizes (lower panel) were calculated by measuring the diameters of about 40 individual mitochondria.
as §2

[9] = tested on: HeLa cells; test: Caspase activation, western blot of cell lysates; format: cell-based; conditions: 5 μM peptide
Experimental: (E) After treatment with the MTD peptide, MTDmt4, or MTDmt5 (5 μM) in HeLa cells, cell lysates were prepared at indicated times. Equal amounts of proteins were subjected to the SDS-PAGE and blotted onto PVDF membrane. After blocked with 5% nonfat milk in TBST (10 mM Tris-HCl, pH 7.5, 100 mM NaCl and 0.1% Tween-20), the membrane was probed with anti-caspase-3 (SantaCruz Biotechnology, Inc., Santa Cruz, Calif., USA), anti-caspase-8 (Cell signaling technology, Beverly, Mass., USA), anti-caspase-9 (SantaCruz Biotechnology, Inc., Santa Cruz, Calif.), anti-XIAP (Upstate Biotechnology, Dundee, United Kingdom), or anti-Bid (home-made) antibodies. Anti-actin antibody (Chemicon International, Inc., Temecula, Calif., USA) was used as equal loading control.

[10] = tested on: HeLa cells; test: Measurement of intracellular calcium with Fluo-4-AM; format: cell-based; conditions: 3 μM peptide
Experimental: (A-C) HeLa cells were loaded with 3 μM Fluo-4-AM for 30 minutes and then treated with 3 μM of indicated peptides (A: MTD, B: MTDmt3, C: MTDmt5). Fluorescence images and bright-field images were obtained with the laser scanning confocal microscope at 5-second intervals for 5 minutes. Relative fluorescence intensities (F/F0) at two region-of-interests (ROI 1 and 2) were measured at 5-second intervals for 5 minutes.
(E-G) HeLa cells were pretreated in calcium free KRB media alone (E), in KRB media with 10 μM 2-APB and 20 μM Ryanodine (F), or in KRB media with freshly made 30 μM CsA (G) for 2 hours. HeLa cells were then loaded with 3 μM Fluo-4-AM for 30 minutes and treated with 3 μM of MTD peptide. Images were obtained with the laser scanning confocal microscope at 5-second intervals for 5 minutes. Relative fluorescence intensities (F/F0) at two region-of-interests (ROI 1 and 2) were measured at 5-second intervals for 5 minutes.
For Ca^2+ measurements in the cytosol, HeLa cells were cultured in an Lab-Tek™ Chamber glass slide and loaded with Fluo-4-AM (Fluo-4-acetoxymethyl ester) at a final concentration of 3 μM for 30 minutes, followed by washing with PBS (Phosphate buffered saline) at pH 7.4 and the addition of fresh Ca^2+-free Krebs-ringer modified buffer (KRB: 125 mM NaCl, 5 mM KCl, 1 mM Na3PO4, 1 mM MgSO4, 5.5 mM glucose, and 20 mM HEPES, pH 7.4, at 37° C.) containing the indicated peptides. Time-lapse images were obtained at 488 nm excitation with the Argon laser scanning confocal microscope (Leica TCS SP5 Microsystems, Mannheim, Germany) at 10-second intervals for 5 minutes to visualize Fluo-4-AM.

[11] = tested on: mPT pore; test: Cobalt-quenched calcein assay; format: cell-based; conditions: HeLa cells; within 5 minutes after treatment
Experimental: (A) HeLa cells were loaded with 1 μM Calcein-AM and 2 mM cobalt for 15 minutes, and the mitochondria were stained by adding 25 μM MitoTracker for 2 minutes. The representative image of the calcein signals (green) that were overlapped with MitoTracker (Red) was shown.
(B) Time-lapse images of calcein and MitoTracker signals from HeLa cells that were not treated (top panel) or treated (bottom panel) with MTD peptide were obtained at 10-second intervals for 5 minutes. The representative images at the indicated time points were shown.
HeLa cells were loaded with 1 μM Calcein-AM and 2 mM cobalt in serum-free DMEM for 15 minutes, followed by adding 25 μM MitoTracker for 2 minutes to stain the mitochondria. Then, HeLa cells were briefly washed with HBSS (Hank's Buffered Salt Solution) and were treated with MTD peptide in calcium-free media containing 10% FBS (Fetal bovine serum). Time-lapse images were obtained at 10-second intervals for 10 minutes.

Sequence: RRRRRRRRGRQKLLNLISKLF [MTD]
- cell death-inducing activity (% of cell death) [1]: comparable cell death-inducing activity to NoxaBH3MTD peptide
- susceptibility of cells to peptide [2]: very susceptible
- susceptibility of cells to peptide [3]: very resistant
- annexin V and SYTOX Green staining ([4]; 10 minutes after treatment): stained with annexin V and SYTOX Green
- morphology of dying cells ([4]; MTD peptide 10 μM or TRAIL 100 ng/ml (FIG. 2A, 7A, 7B)): bubble-like structures of dying cells; also recorded: swollen cytoplasmic membrane
- ultrastructural changes by transmission electron microscopy [5]: swollen mitochondria, the enlarged nucleus and cell membrane swelling; also recorded: swelled mitochondria
- HMGB1 release to the media [6]: significantly released to the media
- cytochrome c release from the mitochondria to the cytosol [7]: not released; also recorded: neither cytochrome c release
- morphological changes or mitochondrial size changes of isolated mitochondria [8]: did not show any morphological changes or mitochondrial size changes; also recorded: no morphological changes
- caspase activation [9]: not activated
- cytosolic calcium level change [10]: substantially increased
- time to cytosolic calcium increase after treatment [10]: 1 to 3 min
- mitochondrial calcein signals (mPT pore opening) [11]: significantly decreased
